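Values below derive from 48-hour exposures of cells grown in 96-well plates, with endpoints linearly interpolated between the two concentrations bracketing the appropriate inhibition level. At the TGI there is no net growth.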
Key:
Assay in all cases: inhibition of tumour cell growth, NCI panel, 48 h
[1] = test system: IGROV1 ovarian
[2] = test system: M14 melanoma
[3] = test system: 786-0 renal
[4] = test system: A549 NSCLC
[5] = test system: NCI/ADR-RES ovarian
[6] = test system: NCI-H226 lung
[7] = test system: SN12C renal
[8] = test system: HS 578T breast
[9] = test system: K-562 leukemia
[10] = test system: HOP-92 NSCLC
[11] = test system: OVCAR-4 ovarian
[12] = test system: NCI-H460 lung
[13] = test system: PC-3 prostate
[14] = test system: SNB-75 CNS
[15] = test system: EKVX NSCLC
[16] = test system: DU-145 prostate
[17] = test system: RXF 393 renal
[18] = test system: SW-620 colon
[19] = test system: UACC-257 melanoma
[20] = test system: NCI-H522 lung
[21] = test system: SK-MEL-5 melanoma
[22] = test system: HT29 colon
[23] = test system: SK-OV-3 ovarian
[24] = test system: MDA-N
[25] = test system: MALME-3M melanoma
[26] = test system: COLO 205 colon
[27] = test system: T-47D breast
[28] = test system: KM12 colon
[29] = test system: SF-539 CNS
[30] = test system: CAKI-1 renal
[31] = test system: U251 CNS
[32] = test system: MDA-MB-435
[33] = test system: BT-549 breast
[34] = test system: MDA-MB-231 breast
[35] = test system: HCT-116 colon
[36] = test system: UACC-62 melanoma
[37] = test system: SR leukemia
[38] = test system: OVCAR-5 ovarian
[39] = test system: MCF7 breast
[40] = test system: TK-10 renal
[41] = test system: RPMI-8226 leukemia
[42] = test system: ACHN renal
[43] = test system: SF-295 CNS
[44] = test system: SF-268 CNS
[45] = test system: OVCAR-8 ovarian
[46] = test system: SK-MEL-2 melanoma
[47] = test system: HCT-15 colon
[48] = test system: MOLT-4 leukemia
[49] = test system: CCRF-CEM leukemia
[50] = test system: NCI-H23 lung
[51] = test system: A498 renal
[52] = test system: UO-31 renal
[53] = test system: SK-MEL-28 melanoma
[54] = test system: HOP-62 NSCLC
[55] = test system: HL-60(TB) leukemia
[56] = test system: OVCAR-3 ovarian
[57] = test system: HCC-2998 colon
[58] = test system: SNB-19 CNS
[59] = test system: LOX IMVI melanoma

## COC(CN(C)C(=O)C(C)NC(=O)c1ccccc1)OC (stereo unspecified)
[1]
  TGI: > 100 µM
[2]
  TGI: > 100 µM
[3]
  TGI: > 100 µM
[4]
  TGI: > 100 µM
[5]
  TGI: > 100 µM
[6]
  TGI: > 100 µM
[7]
  TGI: > 100 µM
[8]
  TGI: > 100 µM
[9]
  TGI: > 100 µM
[10]
  TGI: > 100 µM
[11]
  TGI: > 100 µM
[12]
  TGI: > 100 µM
[13]
  TGI: > 100 µM
[14]
  TGI: > 100 µM
[15]
  TGI: > 100 µM
[16]
  TGI: > 100 µM
[17]
  TGI: > 100 µM
[18]
  TGI: > 100 µM
[19]
  TGI: > 100 µM
[20]
  TGI: > 100 µM
[21]
  TGI: > 100 µM
[22]
  TGI: > 100 µM
[23]
  TGI: > 100 µM
[24]
  TGI: > 100 µM
[25]
  TGI: > 100 µM
[26]
  TGI: > 100 µM
[27]
  TGI: > 100 µM
[28]
  TGI: > 100 µM
[29]
  TGI: > 100 µM
[30]
  TGI: > 100 µM
[31]
  TGI: > 100 µM
[32]
  TGI: > 100 µM
[33]
  TGI: > 100 µM
[34]
  TGI: > 100 µM
[35]
  TGI: > 100 µM
[36]
  TGI: > 100 µM
[37]
  TGI: > 100 µM
[38]
  TGI: > 100 µM
[39]
  TGI: > 100 µM
[40]
  TGI: > 100 µM
[41]
  TGI: > 100 µM
[42]
  TGI: > 100 µM
[43]
  TGI: > 100 µM
[44]
  TGI: > 100 µM
[45]
  TGI: > 100 µM
[46]
  TGI: > 100 µM
[47]
  TGI: > 100 µM
[48]
  TGI: > 100 µM
[49]
  TGI: > 100 µM
[50]
  TGI: > 100 µM

## CC(=O)OCC1OC(On2ccccc2=S)C(OC(C)=O)C(OC(C)=O)C1OC(C)=O (stereo unspecified)
[1]
  TGI: > 100 µM
[2]
  TGI: > 100 µM
[51]
  TGI: > 100 µM
[3]
  TGI: > 100 µM
[4]
  TGI: > 100 µM
[5]
  TGI: > 100 µM
[52]
  TGI: > 100 µM
[7]
  TGI: > 100 µM
[8]
  TGI: > 100 µM
[9]
  TGI: > 100 µM
[10]
  TGI: > 100 µM
[11]
  TGI: > 100 µM
[53]
  TGI: > 100 µM
[12]
  TGI: > 100 µM
[13]
  TGI: > 100 µM
[14]
  TGI: > 100 µM
[15]
  TGI: > 100 µM
[16]
  TGI: > 100 µM
[17]
  TGI: > 100 µM
[18]
  TGI: > 100 µM
[54]
  TGI: > 100 µM
[19]
  TGI: > 100 µM
[20]
  TGI: > 100 µM
[21]
  TGI: > 100 µM
[22]
  TGI: > 100 µM
[23]
  TGI: > 100 µM
[24]
  TGI: > 100 µM
[25]
  TGI: > 100 µM
[26]
  TGI: > 100 µM
[27]
  TGI: > 100 µM
[28]
  TGI: > 100 µM
[29]
  TGI: > 100 µM
[30]
  TGI: > 100 µM
[31]
  TGI: > 100 µM
[32]
  TGI: > 100 µM
[33]
  TGI: > 100 µM
[34]
  TGI: > 100 µM
[35]
  TGI: > 100 µM
[36]
  TGI: > 100 µM
[55]
  TGI: > 100 µM
[38]
  TGI: > 100 µM
[39]
  TGI: > 100 µM
[40]
  TGI: > 100 µM
[42]
  TGI: > 100 µM
[43]
  TGI: > 100 µM
[56]
  TGI: > 100 µM
[44]
  TGI: > 100 µM
[45]
  TGI: > 100 µM
[57]
  TGI: > 100 µM
[46]
  TGI: > 100 µM
[47]
  TGI: > 100 µM
[48]
  TGI: > 100 µM
[58]
  TGI: > 100 µM
[49]
  TGI: 34.5 µM
[59]
  TGI: > 100 µM
[50]
  TGI: > 100 µM
